Key:
Assay type in all cases: in vivo
Design in all cases: key: Type I mouse is a mouse confirmed to highly sensitive to the anticancer agent. By administering paclitaxel into this type of mouse, the tumor almost disappeared; Type II mouse is a mouse whose sensitivity to the anticancer agent was confirmed to be moderate. By administering paclitaxel into this type of mouse, the increase in tumor size is suppressed; Type III mouse is a mouse confirmed to be poor in sensitivity to the anticancer agent. Even if paclitaxel is administered into this type of mouse, the tumor size continues increasing
[1] = system: human-derived breast cancer cultured cells (cell A); assay: Paclitaxel effect on tumor size in mice grafted with breast cancer cells A; details: Cell A graft; paclitaxel 20 mg/kg/day once a day for 5 day; change in tumor size to day 11; one line per mouse
Procedure: (§1) Five kinds of human-derived breast cancer cultured cells (cells A to E) were transplanted subcutaneously into the back of mice, and the mice were maintained for 21 to 28 days to graft the breast tumor cells thereon. 50 mice (Nos. 1 to 50 (Table 2)) on which the breast tumor cells had been grafted were thus created. From the back of each of these mice, a 2.5 mm×2.5 mm tissue section (about 50 mg) was cut off, and a lysis buffer (containing 0.1 w/v % Nonidet P-40 (NP-40) (manufactured by Calbiochem), 50 mM Tris-HCl (pH 7.4), 5 mM EDTA, 50 mM sodium fluoride, 1 mM sodium orthovanadate and 100 μl/ml protease cocktail (Sigma)) was added to this tissue section. The tissue section in the lysis buffer was homogenized with an electric homogenizer.
(§2) 20 mg/kg (mouse weight)/day of paclitaxel was administered once a day into each of mice Nos. 1 to 50 for 5 day. The tumor size from the initiation of administration to day 11 was measured. Depending on change in tumor size, mice Nos. 1 to 50 were classified into types I, II and III. Type I mouse is a mouse confirmed to highly sensitive to the anticancer agent. By administering paclitaxel into this type of mouse, the tumor almost disappeared. Type II mouse is a mouse whose sensitivity to the anticancer agent was confirmed to be moderate. By administering paclitaxel into this type of mouse, the increase in tumor size is suppressed. […]

[2] = system: human-derived breast cancer cultured cells (cell B); assay: Paclitaxel effect on tumor size in mice grafted with breast cancer cells B; details: Cell B graft; paclitaxel 20 mg/kg/day once a day for 5 day; change in tumor size to day 11; one line per mouse
Procedure: as §1, §2

[3] = system: human-derived breast cancer cultured cells (cell C); assay: Paclitaxel effect on tumor size in mice grafted with breast cancer cells C; details: Cell C graft; paclitaxel 20 mg/kg/day once a day for 5 day; change in tumor size to day 11; one line per mouse
Procedure: as §1, §2

[4] = system: human-derived breast cancer cultured cells (cell D); assay: Paclitaxel effect on tumor size in mice grafted with breast cancer cells D; details: Cell D graft; paclitaxel 20 mg/kg/day once a day for 5 day; change in tumor size to day 11; one line per mouse
Procedure: as §1, §2

[5] = system: human-derived breast cancer cultured cells (cell E); assay: Paclitaxel effect on tumor size in mice grafted with breast cancer cells E; details: Cell E graft; paclitaxel 20 mg/kg/day once a day for 5 day; change in tumor size to day 11; one line per mouse
Procedure: as §1, §2

## CC(=O)O[C@H]1C(=O)[C@@]2(C)[C@H]([C@H](OC(=O)c3ccccc3)[C@]3(O)C[C@H](OC(=O)[C@H](O)[C@@H](NC(=O)c4ccccc4)c4ccccc4)C(C)=C1C3(C)C)[C@]1(OC(C)=O)CO[C@@H]1C[C@@H]2O [paclitaxel]
[1]
  result of (4): Type I
[2]
  result of (4): Type II
[3]
  result of (4): Type II
[4]
  result of (4): Type III
[5]
  result of (4): Type III

Reference: patent publication US20060173632A1, “Method for predicting effectiveness of chemotherapy” (SYSMEX CORPORATION, priority 2005, published 2006)
